Measurements as given in US6699901B1, “Dicarboxylato diammine platinum derivatives and compositions comprising them as anti-tumor agents” (priority 2000, dated 2004).
“Also recorded” adds a separate entry of the source. Read-outs that look alike come from different tables or passages of the source.

Columns and labels:
Solubility in water = type: physicochemical
nude mice = assay: Acute toxicity dose limiting experiments (LD50)
Description: The LD50 of the pharmaceutical composition of the invention is tested as follows, for example: […]

[1] = Antitumor effects (test not specified)
[2] = Effectiveness on oral administration; type: in vivo
[3] = tested on: human hepatic cancer cells BEL-7402; assay: IC50 on human hepatic cancer cells BEL-7402; type: cell-based
[4] = tested on: cells of adenocarcinoma of breast; assay: IC50 on human breast cancer cells; type: cell-based
Stability in water = type: physicochemical; settings: after dissolved in water
human hepatic cancer H22 = settings: for response carcinostatic rate: intravenous, daily for seven days
Description: (§1) The mice were divided into three groups, which were given large dose (LD50×⅕), middle dose (LD50× 1/10) and small dose (LD50× 1/20) respectively. […] Beijing's institute for drug control carried out human hepatic cancer H22 nude mice inoculation carcinostatic rate experiments. […] Every group was given 0.2 ml every time per day for seven consecutive days. The mice were put to death thirty days after inoculation.

Kunming mice = assay: Acute toxicity, IP once a day for ten days, LD50 by Bliss method; type: in vivo
Text: a). Divided 50 Kunming mice randomly into 5 groups, each having 10 mice, weighing from 18 g to 22 g and being half male and half female.

cancer = assay: Typical cases treated by oral capsules and injections; type: in vivo, human
Text: 1. The oral capsules were composed of bicycloplatin and adjuvant.
2. […] A course of treatment took 6 times (12 ampoules). The second course of treatment began after an interval of two weeks. After three consecutive courses of treatment, general examination was taken.

hepatic cancer H22 cells = assay: Carcinostatic rates on hepatic cancer H22 in Kunming mice; type: in vivo; settings: for Tumor Weight: daily for seven days; for Mice After Injection: 10 mice before injection
Description: a). Divided 40 Kunming mice with weight ranging from 21 to 22 g, half male and half female randomly into 4 groups. Every group had 10 mice. Inoculated every mouse with 0.2 ml hepatic cancer H22 cells subcutaneously in right abdomen. […] The control group was given normal saline IP. The mice were put to death the day after withdrawal. Weighed the bodies and the tumor, calculated the carcinostatic rates.

melanoma cells = assay: Selective killing experiment, melanoma cells; type: cell-based, human; settings: within a certain range of doses
[5] = tested on: human hepatic cancer BEL-7402 cells; assay: Ultra-microstructure of BEL-7402 cells by transmission electronic microscope; type: cell-based; settings: different doses
Text: 3. […] Then the changes of the ultra-microstructure were observed via transmission electronic microscope. […] The vacuoles and the lipid drop in the plasma increased drastically until necrotic changes, karyopyknosis, karyorrhexis, karyolysis and complete disintegration occurred (FIG. 6-FIG. 11).
e). […] The cells untreated appeared in the shape of irregular polygon, with abundant microvilli on the cell surface, plentiful organelles and different amount of glycogen granules in the plasma. […] The vacuoles and the lipid drop in the plasma increased drastically until necrotic changes, karyopyknosis, karyorrhexis, karyolysis and complete disintegration occurred.

[6] = Toxic reactions in clinical trial (five-degree classification by WHO); type: in vivo, human
carnuncle S180 = assay: Carcinostatic rates against carnuncle S180 in mice; type: in vivo, Kunming mice; settings: for Mice After Injection: 10 mice before injection
[7] = tested on: human breast cancer, lung cancer, hepatic cancer, colorectal cancer and ovary cancer; assay: Nude mice inoculation carcinostatic rate experiments, human cancers; type: in vivo; settings: for response carcinostatic rate: injected abdominally
Description: as §1

rats = assay: Long-term toxicity experiments in rats
Text: Thus we can not only know the target organs of toxic reactions and the reversibility of the damages through observing the main body reactions and degrees of injuries after three months of administration, but also determine nontoxic dose to provide reference for therapeutic safe dose.
c). […] Weighed the rats once a week and adjusted doses according to weight changes. Stopped administration after 12 weeks and continued observing for 2 weeks.

lung cancer cells = assay: Selective killing experiment, lung cancer cells; type: cell-based, human; settings: within a certain range of doses
[8] = tested on: human hepatic cancer BEL-7402 cells; assay: Dynamic growth of BEL-7402 cells cultured in vitro; type: cell-based; settings: 10 μg/ml and 20 μg/ml, observed for eight days
Description: 1. […] From the third day on, the survival cells in the treated group were less than that in the control group, in which the cells grew logarithmically while those in the treated group decreased gradually. The difference among the groups became wider as time went by; moreover, the survival cells of 20 μg/ml group were less than those of 10 μg/ml group.
c). […] Then observed the dynamic growth of the cells for eight days. […] From the third day on, the cells in the control group grew logarithmically while those in the treated group decreased gradually. The difference among the groups became wider as time went by.

[9] = tested on: human oral cancer KB cells; assay: Determination of IC50, MTT, KB cells; type: cell-based; settings: for Response rate: KB
[10] = tested on: gastric cancer BGC-823 cells; assay: Determination of IC50, MTT, BGC-823 cells; type: cell-based
Description: a). Cultured gastric cancer BGC-823 cells in RPMJ-1640 nutritional fluid containing 15% fetal calf serum; then inoculated them onto 96-well culture plate, 1×10^4 cells per well; Put it in an incubator with temperature of 37° C. and 5% of CO2. […] After 72 hours of culture, added MTT fluid. An hour later, DMSO was added for coloration. OD value was assayed with enzyme labeling instrument. Finally, calculated the response rate of the drug in each concentration and determined IC50 based on the coordinate process.

[11] = after two times of administration of the smallest dose based on LD50
[12] = 12th week of administration and 2 weeks after withdrawal
[13] = rats, oral LD50/10 once a day for 90 days

For “Double 1,1-Cyclopropane Dicarboxylic Acid Diaminoplatin Complex”, the “solubility in water compared with bicycloplatin” value (Solubility in water) was “less soluble in water”, the LD50 (nude mice; injected) was 180 mg/kg and the “antitumor effects compared with bicycloplatin” value [1] was “superior”.
In the case of N.N.O=C([O-])C1(C(=O)[O-])CCC1.[Pt+2] [Carboplatin, carboplatin, reference compound], the “effectiveness on oral administration” value [2] is reported as “ineffective”, the Solubility in water (Solubility in water) is reported as 1.5 g/100 ml and the LD50 abdominal administration (nude mice; administered abdominally) is reported as 130 mg/kg. The IC50 [3] was 8.45 µg/mL, the IC50 [4] was 9.3 µg/mL and the stability in water (Stability in water) was “lose effectiveness in one day”.
For O=P1(N(CCCl)CCCl)NCCCO1 (stereo not shown) [cyclophosphamide, reference compound], the inhibition rate (human hepatic cancer H22; [11]) was 73.15% and the “state of the mice” value (human hepatic cancer H22; [11]) was “most of the mice were near death”.
With “double 1,1-cyclobutane dicarboxylic acid diaminoplatin complex [bicycloplatin]” the abnormal manifestations (Kunming mice; IP 96-400 mg/kg) was “did not occur except local irritation of the high concentration”, the time of death (Kunming mice; IP 96-400 mg/kg) was “on the 3rd to 7th day” and the “LD50±SE” value (Kunming mice; Kunming mice, IP once a day for ten consecutive days, Bliss method) was 210.5 ± 1.14 mg/kg. For the same molecule, the “LD50 compared with cisplatin and carboplatin” value (Kunming mice; determined under the same condition) was “significantly higher than the LD50 of cisplatin and carboplatin”, the tumor (cancer; Patient Li, end of the 2nd course of treatment) was “basically disappeared” and the lung metastatic carcinoma (cancer; Patient Ma, hepatic cancer, capsules and injections, after two months) was “disappeared”. For the same molecule, the outcome (cancer; Patient Meng, adenocarcinoma of lung at late stage, injections and oral capsules) was “cured in general”, the final outcome (cancer; Patient Wang, late hepatic cancer) was “the tumor disappeared” and the outcome (cancer; Patient Yang, melanoma, metastasis to liver and lung, 36 ampoules) was “The metastatic tumors had been cured and the melanoma had necrosed”. For the same molecule, the “three masses with size of 2×2 cm^2” value (cancer; Patient Zhu, cystic cancer, oral capsules) was “disappeared completely”, the metastasis to liver (cancer; foreign patient, intestinal cancer, 36 ampoules and 36 oral capsules) was “disappeared” and the “effectiveness on oral administration” value [2] was “significant therapeutic effects”. The “Body Weight After Injection” value (hepatic cancer H22 cells; H22, 10 mg/kg) was 27.9 g, the “Response rate” value (hepatic cancer H22 cells; H22, 10 mg/kg) was 40.4% and the “Tumor Weight” value (hepatic cancer H22 cells; H22, 10 mg/kg abdominally) was 0.95 ± 0.29 g. For the same molecule, the “Mice After Injection” value (hepatic cancer H22 cells; H22, 10 mg/kg) was 10, the “Body Weight After Injection” value (hepatic cancer H22 cells; H22, 20 mg/kg) was 24.4 g and the “Response rate” value (hepatic cancer H22 cells; H22, 20 mg/kg) was 67.0%. For the same molecule, the “Tumor Weight” value (hepatic cancer H22 cells; H22, 20 mg/kg abdominally) was 0.53 ± 0.26 g, the “Mice After Injection” value (hepatic cancer H22 cells; H22, 20 mg/kg) was 10 and the “Body Weight After Injection” value (hepatic cancer H22 cells; H22, 30 mg/kg) was 22.4 g. For the same molecule, the “Response rate” value (hepatic cancer H22 cells; H22, 30 mg/kg) was 78.6%, the “Tumor Weight” value (hepatic cancer H22 cells; H22, 30 mg/kg abdominally) was 0.34 ± 0.09 g and the “Mice After Injection” value (hepatic cancer H22 cells; H22, 30 mg/kg) was 10. For the same molecule, the mortality (hepatic cancer H22 cells; H22, 10-30 mg/kg) was “no mortality occurs”, the “weight gain of the treated groups” value (hepatic cancer H22 cells; H22, 10-30 mg/kg, versus control group) was “less than that of the control group” and the “melanoma cells (melanophore) killed” value (melanoma cells) was 80%. The IC50 [3] was 1.3 µg/mL, the IC50 [4] was 2.8 µg/mL and the cell death [5] was “Five days later cell death occurred”. The “changes of the ultra-microstructure” value [5] was “degenerative changes of different degrees with the increase of the concentration of drug; also recorded: degenerative changes of different degrees with the increase of the concentration of bicycloplatin”, the “death of nude mice” value (human hepatic cancer H22; every group containing ten mice) was “No death of nude mice was observed” and the response carcinostatic rate (human hepatic cancer H22; large dose (LD50×⅕)) was 50.85%. For the same molecule, the response carcinostatic rate (human hepatic cancer H22; middle dose (LD50×1/10)) was 57.40%, the response carcinostatic rate (human hepatic cancer H22; small dose (LD50×1/20)) was 35.20% and the adverse reactions [6] was “no adverse reactions occur”. The antitumor spectrum [1] was “Broad Antitumor Spectrum”, the “antitumor effects on S180” value (carnuncle S180; 10-30 mg/kg) was “potent antitumor effects on S180 dependent on doses” and the “Body Weight After Injection” value (carnuncle S180; S180, 10 mg/kg) was 25.8 g. For the same molecule, the “Response rate” value (carnuncle S180; S180, 10 mg/kg) was 39.7%, the “Tumor Weight” value (carnuncle S180; S180, 10 mg/kg) was 1.03 ± 0.30 g and the “Mice After Injection” value (carnuncle S180; S180, 10 mg/kg) was 10. The “Body Weight After Injection” value (carnuncle S180; S180, 20 mg/kg) was 18.1 g, the “Response rate” value (carnuncle S180; S180, 20 mg/kg) was 68.0% and the “Tumor Weight” value (carnuncle S180; S180, 20 mg/kg) was 0.54 ± 0.16 g. For the same molecule, the “Mice After Injection” value (carnuncle S180; S180, 20 mg/kg) was 10, the “Body Weight After Injection” value (carnuncle S180; S180, 30 mg/kg) was 21.5 g and the “Response rate” value (carnuncle S180; S180, 30 mg/kg) was 71.0%. For the same molecule, the “Tumor Weight” value (carnuncle S180; S180, 30 mg/kg) was 0.49 ± 0.16 g, the “Mice After Injection” value (carnuncle S180; S180, 30 mg/kg) was 10 and the response carcinostatic rate ([7]; large dose (LD50×⅕)) was 90%. For the same molecule, the response carcinostatic rate ([7]; middle dose (LD50×1/10)) was 95%, the response carcinostatic rate ([7]; small dose (LD50×1/20)) was 70% and the carcinostatic rates ([7]; same doses given by stomach lavage, compared with abdominal injection) was “a little lower carcinostatic rates”. For the same molecule, the “BUN, GPT, GOT versus control group” value (rats; [12]) was “no significant difference”, the “WBC, RBC, hemoglobin, platelet” value (rats; [12]) was “all within normal ranges” and the “histological examination, livers and spleens” value (rats; after observation) was “different degrees of hyperemia and edema”. For the same molecule, the “histological examination, other visceras” value (rats; after observation) was “No organic changes caused by the drug are found”, the other visceral coefficients (rats; after observation) was “all normal” and the “weights of the livers” value (rats; after observation, versus control group) was “slightly heavier than that of the control group”. The “diet, activity and state of the rats” value (rats; [13]) was “no obvious abnormality”, the mortality (rats; [13]) was “No mortally occurred” and the “injuries of the drug to viscera” value (rats; rats, three months of administration) was “dose-dependent”. The damage and recovery (rats; small dose) was “does a little damage to the group and the group can recover fully”, the reversibility of injuries (rats; therapeutic dose) was “alleviated after one month of withdrawal” and the “lung cancer cells killed” value (lung cancer cells) was 50%. The “inhibition of growth of BEL-7402 cells” value [8] was “could inhibit the growth of human hepatic cancer BEL-7402 cells cultured in vitro dependent on time and dose; also recorded: potent antitumor effects on human hepatic cancer BEL-7402 cells dependent on doses”, the IC50 ([9]; KB cells, 72 hours) was “IC50 = 13.24 ± 1.33 μg/ml” and the Response rate ([9]; 0.78 μg/ml) was 5.9%. It also gave a Response rate ([9]; 1.56 μg/ml) of 14.8%, a Response rate ([9]; 3.13 μg/ml) of 28.2% and a Response rate ([9]; 6.25 μg/ml) of 26.2%. It also gave a Response rate ([9]; 12.5 μg/ml) of 36.7%, a Response rate ([9]; 25 μg/ml) of 66.6% and a Response rate ([9]; 50 μg/ml) of 77.1%. It also gave a Response rate ([9]; 100 μg/ml) of 93.0%, a Response rate ([9]; 200 μg/ml) of 93.3% and a Response rate ([10]; BGC-823, 0.78 μg/ml) of 6.0%. For the same molecule, the Response rate ([10]; BGC-823, 1.56 μg/ml) was 19.0%, the Response rate ([10]; BGC-823, 3.13 μg/ml) was 21.0% and the Response rate ([10]; BGC-823, 6.25 μg/ml) was 33.0%. For the same molecule, the Response rate ([10]; BGC-823, 12.5 μg/ml) was 51.0%, the Response rate ([10]; BGC-823, 25 μg/ml) was 60.0% and the Response rate ([10]; BGC-823, 50 μg/ml) was 74.6%. For the same molecule, the Response rate ([10]; BGC-823, 100 μg/ml) was 80.3%, the Response rate ([10]; BGC-823, 200 μg/ml) was 83.3% and the IC50 ([10]; BGC-823, 72 hours) was “IC50 = 14.80 ± 1.34 μg/ml”.
In the case of N.N.[Cl][Pt][Cl] [Cisplatin, cis-dichlorodiaminoplatin], the “effectiveness on oral administration” value [2] is reported as “ineffective” and the stability in water (Stability in water) is reported as “lose effectiveness in one day”.
